We go through one molecule from patent publication US12168003B2, “Selective inhibition of T follicular helper cells for treatment of autoimmune disorders” (priority 2019, dated 2024).

Each structure is given as a SMILES string.

Type in all cases: in vivo, mouse
For one series, the system named is TH2 cells and Tregs. Put plainly: A. fumigatus repeat sensitization airway disease model. On the procedure:
A. fumigatus Fresenius (ATCC 13073) was grown for 7 days on potato dextrose agar plates (Thermo Scientific) at 37° C. Conidia were harvested by agitation in a flask with sterile PBS+0.1% Tween-20 and filtered through a 40 μm nylon mesh. Mice were intratracheally sensitized with 1.8×10^6 conidia in 50 μL of PBS on days 0, 7, and 11. On day 0 through 17 mice were treated daily with i.p. 25 mg/kg 4EGI-1 or vehicle. On day 18, mice were euthanized and lungs were collected along with mediastinal lymph node (MedLN) and blood. Serum was obtained and stored as described above.
Spleens, draining lymph nodes, and brains were dissociated with the plunger-end of a syringe and passed through a 70 μm nylon filter. Splenocytes were subject to RBC lysis with ACK (Ammonium-Chloride-Potassium). Ears were subject to mechanical dissociation with scissors prior to incubation in 1 mL PBS in a 48-well plate with 100 μg/mL Liberase TL and 20 μg/mL DNase I for 1.5 hours at 37° C. Following incubation, cells were further dissociated by passing through a syringe, quenched with PBS+2% FCS, and filtered through a 70 μm nylon filter. Lungs were mechanically dissociated with a razor blade and incubated in a 6 cm dish with 5 mLs RPMI containing 250 μg/mL collagenase, 50 μg/mL Liberase TL, 1 mg/mL hyaluronidase, and 200 μg/mL DNase I for 30 minutes. Following incubation, cells quenched with PBS+2% FCS, and filtered through a 70 μm nylon filter. Ear and lung cells were subject to lymphocyte isolation using a gradient (Lymphocyte Separation Medium; Cellgro). Vertebral columns were flushed with PBS through a 19-gauge needle to remove intact spinal cords. Spinal cords were subject to mechanical dissociation with scissors and incubation in 1 mL PBS with 200 μg/mL DNase I and 50 μg/mL Liberase TL for 30 minutes at 37° C. Following incubation, cells were quenched with PBS+2% FCS and filtered through a 70 μm nylon filter.
For quantification of OVA-specific IgG1, high-binding 96-well plates (Costar) were coated with 10 μg/mL OVA protein. For S. aureus-specific IgG1, plates were coated with heat-killed S. aureus (heat-killed at 80° C. for 30 min). For total IgE, plates were coated with 2 μg/mL rat anti-mouse IgE (Southern Biotech). Following overnight incubation at 4° C., plates were blocked with 1% BSA for 30 min at 37° C. After blocking, serum (diluted 1/20 initially then 1/2 down the plate) was incubated at 37° C. for 2 hours, plates were washed 3 times in PBS and then incubated with 1:1000 anti-mouse IgG1-HRP (Southern Biotech) or anti-mouse IgE-HRP (Southern Biotech) for 1 hour at 37° C. Plates were washed 3 times in PBS and incubated with TMB substrate. Following development, TMB Stop Solution (BioLegend®) was added and plates were read at […].
Lungs fixed in 4% PFA (ThermoFisher) and spinal cords fixed in 10% buffered formalin (Leica) were incubated overnight and moved to 70% ethanol prior to ethanol dehydration, xylene incubation, and paraffin embedding. Five-micron thick sections of lung were stained with hematoxylin and eosin (H&E), Periodic Acid-Schiff (PAS), or Masson's Trichrome Stain (MTS). Spinal cords were stained with H&E or Luxol fast blue and hematoxylin (LFB-H). Staining was visualized with an EVOS FLc microscope.

Series [1] concerns TH17-differentiated 2D2 T cells. Put plainly: Passive EAE with TH17-differentiated 2D2 T cells pre-treated with 4EGI-1. The note with it: 2D2 T cells pre-treated with 20 μM 4EGI-1 for 1 h in vitro. On the procedure: TH17 2D2 T cells were removed from activation and treated with vehicle or 20 μM 4EGI-1 for 1 h at 37° C. in vitro prior to transfer of 9.3×10^6 2 D2 T cells i.p. per recipient. Mice were given 200 ng pertussis toxin i.p. […] following T cell injection. Animals were monitored daily for 35 days and scored on a scale of 0-5 as described above. At day 35, TFH-like (ICOS^high) Vα3.2 cells were identified from the spinal cord.

Series [2] has as its system eIF4E cap-dependent protein synthesis in the CD4+ T cell compartment. Nature of the series: SUnSET protein synthesis assay in CD4+ T cells of mice dosed with 4EGI-1. The note with it: 25 mg/kg daily. The method, then: Determination of eIF4E activity in vivo should compare untreated to treated animals. Specimens may include single-cell suspensions of splenocytes isolated using Percoll gradient purification followed by plating in X-VIVO media (Lonza) containing 5% human AB serum (Sigma) and Glutamax at 37° C. for one hour and subjected to SuNSET assay for 10 minutes to determine active protein synthesis rates according to manufacturer instructions (AG Scientific) and shown in FIGS. 10A and 14B.
Mice were immunized with 100 μg OVA/Alum and 7 days following, spleens were harvested and single-cell suspensions were generated. Splenocytes were incubated in mouse T cell media (detailed in Silencing of eIF4E in OT2 T cells by lentivirus transduction) with 0-25 μM 4EGI-1 for 4 hours at 37° C. Cells were stained with a live/dead viability marker and then for extracellular expression of CD4, CXCR5, PD-1, or ICOS or intranuclear expression of BCL6. For the SuNSET assay, cells from above were incubated 37° C. with 10 μg/mL puromycin for 10 minutes. Control samples were incubated with puromycin and 100 μg/mL cycloheximide. Cells were incubated with a live/dead viability marker and extracellular stain prior to fixation and permeabilization (BD Biosciences Fixation/Permeabilization Solution) and intracellular staining with anti-puromycin followed by anti-mouse IgG2a antibody conjugated to Alexa Fluor 488.

Setting [3] is: 25 mg/kg daily i.p., lung sections.
[4] abbreviates: mediastinal lymph nodes, day 18.

Turning to `O=C(O)C(Cc1ccccc1[N+](=O)[O-])=NNc1nc(-c2ccc(Cl)c(Cl)c2)cs1` (mixture of isomers) [4EGI-1], in the series on TH2 cells and Tregs (25 mg/kg daily i.p., day 18), the “levels of pulmonary TH2 cells (GATA3+ or IL-13+)” value was “no effect”, the “levels of pulmonary Tregs (Foxp3+)” value is given as “no effect” and the “levels of pulmonary eosinophils” value is listed as “no effect”. For the same molecule, in the series on TH2 cells and Tregs (setting [3]), the airway inflammation entry is “no effect” and the mucin production entry is “no effect”. Also, in the series on TH2 cells and Tregs (setting [4]), the “formation of GC B cells in draining lymph nodes” value is on record as “strongly reduced” and the “formation of TFH cells in draining lymph nodes” value is given as “strongly reduced”. Besides, in the series on TH2 cells and Tregs (serum total IgE, day 18), the “secretion of class-switched immunoglobulins” value is recorded as “strongly reduced”. Besides, in series [1], the “TFH-like 2D2 T cells (ICOShigh) in the spinal cord” value is listed as “reduced by half” and the “development of passive EAE disease in recipient mice” value is “did not develop disease”. For the same molecule, the tolerability entry in series [2] (mice) is listed as “well tolerated”. In addition, in series [2] (uninfected mice, SUnSET (FIG. 1A)), the “inhibition of eIF4E cap-dependent protein synthesis in the CD4+ T cell compartment” value was “approximately 30%”.
